According to patent US6476051B2, “Antipsychotic heterocycle compounds” (Bristol-Myers Squibb Company, priority 1999, dated 2002):
Read-outs that look alike come from different tables or passages of the source.

Tests used:
[1] = target: T1, recombinant human dopamine D2L receptors (Homo sapiens, UniProt P14416); assay: Dopamine binding protocol ([3H]-spiperone binding, HEK-D2L cell membranes)
T1 construct: expressed in transfected cells; host or cells: HEK-293 (HEK-D2L cells), membrane homogenates
Experimental: Like many clinically effective antipsychotic agents, the compounds of Formula I also are antagonists at the human D2L receptor as determined by [^3H]-spiperone binding studies using human D2L receptors stably expressed in HEK-293 cells.
HEK-293 cells that stably express recombinant human dopamine D2L receptors (HEK-D2L cells) were grown at 37° C. in 5% CO2 as a monolayer in medium consisting of EMEM supplemented with 10% fetal bovine serum and G418 sulfate (500 μg/ml). To prepare membranes for radioligand binding experiments, cells were rinsed twice with phosphate-buffered saline (138 mM NaCl, 4.1 mM KCl, 5.1 mM Na2PO4, 1.5 mM […] 11.1 mM glucose, pH 7.4), and incubated for 5-10 min. at 4° C. in hypotonic lysis buffer consisting of 10 mM Tris (pH 7.4) and 5 mM EDTA. Cells were transferred from plates to polypropylene tubes (16×100 mm), homogenized and centrifuged at 32,000×g for 20 min. Following centrifugation, pellets were resuspended by homogenization in buffer consisting of 50 mM Tris (pH 7.7 at 25° C.) and 1 mM EDTA. Homogenates were stored at −80° C. until needed. On the day of an experiment, homogenates were thawed then centrifuged at 32,000×g for 20 min. Following centrifugation, supernatants were discarded and pellets were resuspended in assay buffer consisting of 50 mM Tris (pH 7.4 at 25° C.), 1 mM EDTA and 6 mM MgCl2. Membrane homogenates (˜5 μg) were incubated with 150 pM [^3H]-spiperone (Amersham Life Science) and increasing concentrations of test compounds for 1.5 hours at 22° C. in a total volume of 400 μl. Reactions were stopped by addition of ice-cold assay buffer and filtration over glass fiber filters (Whatman GFB, pre-soaked in 0.05% polyethylenimine) using a microtitre format Brandel cell harvester. Filters were washed with 3 ml of ice-cold assay buffer. Non-specific binding was defined with 2 μM (+)butaclamol. Ki values were calculated using the method of Cheng and Prusoff (1973). Protein concentrations were determined by the method of Bradford (1976) with BSA as a standard.
Test data IC50 values lower than 250 nM are considered to reflect affinity for dopamine D2L receptors.

[2] = target: T2, human serotonin transporters (Homo sapiens, UniProt P31645); assay: Serotonin transporter binding assay ([3H]-citalopram binding, HEK-hSERT cell membranes)
T2 construct: expressed in transfected cells; host or cells: HEK-293 (HEK-hSERT cells), membrane homogenates
Excerpt: The compounds of Formula I bind potently to the human 5-HT transporter and inhibit the re-uptake of endogenous serotonin. Selective serotonin reuptake inhibitors (SSRIs) are effective for the treatment of mental depression and have been reported to be useful for treating chronic pain (see: R. W. Fuller, Pharmacologic Modification of Serotonergic Function: Drugs for the Study and Treatment of Psychiatric and Other Disorders,” J. Clin. Psychiatry, 47:4 (Suppl.) April 1986, pp. 4-8). Compounds of the present invention are also envisioned to be useful for treating psychosis, acute mania, mild anxiety states or depression with secondary psychotic episodes. The present compounds are also envisioned to be useful in treating obsessive-compulsive disorders, feeding disorders, anxiety disorders and panic disorders.
HEK-293 cells that stably express human serotonin transporters (HEK-hSERT cells) were grown at 37° C. in 5% CO2 as a monolayer in medium consisting of EMEM supplemented with 10% fetal bovine serum and G418 sulfate (500 μg/ml). To prepare membranes for radioligand binding experiments, cells were rinsed twice with phosphate-buffered saline (138 mM NaCl, 4.1 mM KCl, 5.1 mM Na2PO4, 1.5 mM […], 11.1 mM glucose, pH 7.4). Cells were transferred from plates to polypropylene tubes (16×100 mm), centrifuged at 1,200×g for 5 min and were frozen at −80° C. until assay. Following centrifugation, pellets were resuspended by homogenization in buffer consisting of 50 mM Tris (pH 7.7 at 25° C.), 120 mM NaCl and 5 mM KCl and then centrifuged at 32,000×g for 10 min. Following centrifugation, supernatants were discarded and pellets were resuspended in buffer consisting of 50 mM Tris (pH 7.4 at 25° C.), 150 mM NaCl and 5 mM KCl. Membrane homogenates (200 μl/plate) were incubated with 1 nM [^3H]-citalopram (specific activity=85 Ci/mmol) and increasing concentrations of test compounds for 1 hour at 25° C. in a total volume of 250 μl. The assay buffer consisted of 50 mM Tris (pH 7.4 at 25° C.), 120 mM NaCl and 5 mM KCl (pH 7.4 with conc. HCl). Plates were incubated for 1 hour at 25° C., then filtered through 0.5% PEI treated Whatman GF/B filters using a Brandel cell harvester. Filters were washed three times with 3 ml of ice-cold tris wash buffer. Non-specific binding was defined with 10 μM fluoxetine. Amount of radioligand bound in the presence and absence of competitor was analyzed by plotting (−)log drug concentration versus the amount of radioligand specifically bound. The midpoint of the displacement curve (IC50, nM), signifies the potency. Ki values were calculated using the method of Cheng and Prusoff (1973).
Substances which inhibit the re-uptake of serotonin are recognized to be effective antidepressants (Selective Serotonin Reuptake Inhibitors. Edited by J P Feighner and W F Boyer, Chichester, England. John Wiley & Sons, 1991, pp 89-108). Test data IC50 values lower than 250 nM are considered to reflect activity as an inhibitor of serotonin re-uptake.

[3] = [3H]-spiperone, HEK-D2L membranes, read-out: dopamine D2L ligands with Ki
[4] = [3H]-citalopram, HEK-hSERT membranes, read-out: inhibit the re-uptake of serotonin with Ki

T1 sequence (P14416 whole entry): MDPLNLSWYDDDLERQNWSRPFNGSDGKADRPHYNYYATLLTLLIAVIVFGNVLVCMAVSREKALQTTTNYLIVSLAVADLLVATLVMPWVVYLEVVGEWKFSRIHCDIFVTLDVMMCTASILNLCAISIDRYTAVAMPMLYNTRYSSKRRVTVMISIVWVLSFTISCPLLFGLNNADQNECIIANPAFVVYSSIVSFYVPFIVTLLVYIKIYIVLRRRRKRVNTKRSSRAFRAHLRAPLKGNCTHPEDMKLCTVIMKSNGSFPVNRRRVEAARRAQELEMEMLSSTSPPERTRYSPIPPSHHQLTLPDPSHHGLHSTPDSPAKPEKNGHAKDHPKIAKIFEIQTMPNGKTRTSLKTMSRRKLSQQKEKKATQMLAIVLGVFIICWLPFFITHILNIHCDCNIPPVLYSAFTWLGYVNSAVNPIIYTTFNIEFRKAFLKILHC
T2 sequence (P31645 whole entry): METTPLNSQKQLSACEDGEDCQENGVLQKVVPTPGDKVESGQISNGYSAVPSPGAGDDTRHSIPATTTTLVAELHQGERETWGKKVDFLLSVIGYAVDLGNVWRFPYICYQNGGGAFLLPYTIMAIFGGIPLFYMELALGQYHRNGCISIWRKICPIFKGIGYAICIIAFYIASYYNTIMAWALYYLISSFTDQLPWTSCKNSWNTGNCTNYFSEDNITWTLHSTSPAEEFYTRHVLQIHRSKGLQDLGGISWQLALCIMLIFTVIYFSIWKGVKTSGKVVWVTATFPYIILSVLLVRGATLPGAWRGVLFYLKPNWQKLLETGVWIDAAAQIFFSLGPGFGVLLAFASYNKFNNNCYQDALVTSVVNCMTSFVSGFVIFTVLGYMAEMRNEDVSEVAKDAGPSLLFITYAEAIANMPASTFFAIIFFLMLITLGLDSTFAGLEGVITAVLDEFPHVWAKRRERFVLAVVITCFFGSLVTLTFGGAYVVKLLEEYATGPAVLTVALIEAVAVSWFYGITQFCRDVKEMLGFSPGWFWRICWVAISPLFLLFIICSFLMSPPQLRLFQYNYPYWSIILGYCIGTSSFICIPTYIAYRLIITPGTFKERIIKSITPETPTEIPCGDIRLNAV

Ki [1, 3] [µM] | Ki [2, 4] [µM] | Structure (SMILES) | Ki [1] [µM] | Ki [2] [µM]
< 0.1 | < 0.1 | N#Cc1ccc2[nH]cc(C3CCN(CCCOc4ccccc4)CC3)c2c1 [Example 4, 3-[1-(3-phenoxypropyl)-4-piperidinyl]-5-cyanoindole] |  | 
< 0.1 | < 0.1 | N#Cc1ccc2[nH]cc(C3CCN(CCCOc4ccccc4F)CC3)c2c1 [Example 5, 3-{1-[3-(2-fluorophenoxy)propyl]-4-piperidinyl}-5-cyanoindole] |  | 
< 0.1 | < 0.1 | N#Cc1ccc2[nH]cc(C3CCN(CCCOc4ccc(F)cc4)CC3)c2c1 [Example 6, 3-{1-[3-(4-fluorophenoxy)propyl]-4-piperidinyl}-5-cyanoindole] |  | 
< 0.1 | < 0.1 | COc1ccccc1OCCCN1CCC(c2c[nH]c3ccc(C#N)cc23)CC1 [Example 7, 3-{1-[3-(2-methoxyphenoxy)propyl]-4-piperidinyl}-5-cyanoindole] |  | 
< 0.1 | < 0.1 | COc1cccc(OCCCN2CCC(c3c[nH]c4ccc(C#N)cc34)CC2)c1 [Example 8, 3-{1-[3-(3-methoxyphenoxy)propyl]-4-piperidinyl}-5-cyanoindole] |  | 
< 0.1 | < 0.1 | COc1ccc(OCCCN2CCC(c3c[nH]c4ccc(C#N)cc34)CC2)cc1 [Example 9, 3-{1-[3-(4-methoxyphenoxy)propyl]-4-piperidinyl}-5-cyanoindole] |  | 
< 0.1 | < 0.1 | COc1ccc(OCCCN2CCC(c3c[nH]c4ccc(C#N)cc34)CC2)cc1OC [Example 10, 3-{1-[3-(3,4-dimethoxyphenoxy)propyl]-4-piperidinyl}-5-cyanoindole] |  | 
 |  | Cc1nc2cc(OCCCN3CC=C(c4c[nH]c5cccc(F)c45)CC3)ccc2s1 [Example 11, 5-{3-[4-(4-fluoroindol-3-yl)-1,2,5,6-tetrahydropyrid-1-yl]propoxy}-2-methylbenzothiazole] | < 0.1 | < 0.1
 |  | Cc1nc2cc(OCCCN3CC=C(c4c[nH]c5ccc(C#N)cc45)CC3)ccc2s1 [Example 12, 5-{3-[4-(5-cyanoindol-3-yl)-1,2,5,6-tetrahydropyrid-1-yl]propoxy}-2-methylbenzothiazole] | < 0.1 | < 0.1
 |  | Cc1nc2cc(OCCCCN3CC=C(c4c[nH]c5cccc(F)c45)CC3)ccc2s1 [Example 13, 5-{4-[4-(4-fluoroindol-3-yl)1,2,5,6-tetrahydropyrid-1-yl]butoxy}-2-methylbenzothiazole] | < 0.1 | < 0.1
 |  | Cc1nc2cc(OCCCCCN3CC=C(c4c[nH]c5cccc(F)c45)CC3)ccc2s1 [Example 14, 5-{5-[4-(4-fluoroindol-3-yl)-1,2,5,6-tetrahydropyrid-1-yl]pentoxy}-2-methylbenzothiazole] | < 0.1 | < 0.1
 |  | Cc1nc2cc(OCCCCN3CC=C(c4c[nH]c5ccc(F)cc45)CC3)ccc2s1 [Example 15, 5-{4-[4-(5-fluoroindol-3-yl)1,2,5,6-tetrahydropyrid-1-yl]butoxy}-2-methylbenzothiazole] | < 0.1 | < 0.1
 |  | Cc1nc2cc(OCCCCCN3CC=C(c4c[nH]c5ccc(F)cc45)CC3)ccc2s1 [Example 16, 5-{5-[4-(5-fluoroindol-3-yl)-1,2,5,6-tetrahydropyrid-1-yl]pentoxy}-2-methylbenzothiazole] | < 0.1 | < 0.1
 |  | Cc1nc2cc(OCCCN3CC=C(c4c[nH]c5c(F)cccc45)CC3)ccc2s1 [Example 17, 5-{3-[4-(7-fluoroindol-3-yl)-1,2,5,6-tetrahydropyrid-1-yl]propoxy}-2-methylbenzothiazole] | < 0.1 | < 0.1
 |  | Cc1nc2cc(OCCCCN3CC=C(c4c[nH]c5c(F)cccc45)CC3)ccc2s1 [Example 18, 5-{4-[4-(7-fluoroindol-3-yl)1,2,5,6-tetrahydropyrid-1-yl]butoxy}-2-methylbenzothiazole] | < 0.1 | < 0.1
 |  | Cc1nc2cc(OCCCCCN3CC=C(c4c[nH]c5c(F)cccc45)CC3)ccc2s1 [Example 19, 5-{5-[4-(7-fluoroindol-3-yl)-1,2,5,6-tetrahydropyrid-1-yl]pentoxy}-2-methylbenzothiazole] | < 0.1 | < 0.1
 |  | Cc1nc2cc(OCCCCN3CC=C(c4c[nH]c5ccc(Cl)cc45)CC3)ccc2s1 [Example 20, 5-{4-[4-(5-chloroindol-3-yl)1,2,5,6-tetrahydropyrid-1-yl]butoxy}-2-methylbenzothiazole] | < 0.1 | < 0.1
 |  | Cc1nc2cc(OCCCCCN3CC=C(c4c[nH]c5ccc(Cl)cc45)CC3)ccc2s1 [Example 21, 5-{5-[4-(5-chloroindol-3-yl)-1,2,5,6-tetrahydropyrid-1-yl]pentoxy}-2-methylbenzothiazole] | < 0.1 | < 0.1
 |  | Cc1nc2cc(OCCCN3CC=C(c4c[nH]c5cc(Cl)ccc45)CC3)ccc2s1 [Example 22, 5-{3-[4-(6-chloroindol-3-yl)-1,2,5,6-tetrahydropyrid-1-yl]propoxy}-2-methylbenzothiazole] | < 0.1 | < 0.1
 |  | Cc1nc2cc(OCCCCN3CC=C(c4c[nH]c5cc(Cl)ccc45)CC3)ccc2s1 [Example 23, 5-{4-[4-(6-chloroindol-3-yl)1,2,5,6-tetrahydropyrid-1-yl]butoxy}-2-methylbenzothiazole] | < 0.1 | < 0.1
 |  | Cc1nc2cc(OCCCCCN3CC=C(c4c[nH]c5cc(Cl)ccc45)CC3)ccc2s1 [Example 24, 5-{5-[4-(6-chloroindol-3-yl)-1,2,5,6-tetrahydropyrid-1-yl]pentoxy}-2-methylbenzothiazole] | < 0.1 | < 0.1
 |  | Cc1nc2cc(OCCCN3CC=C(c4c[nH]c5cc(Br)ccc45)CC3)ccc2s1 [Example 25, 5-{3-[4-(6-bromoindol-3-yl)-1,2,5,6-tetrahydropyrid-1-yl]propoxy}-2-methylbenzothiazole] | < 0.1 | < 0.1
 |  | Cc1nc2cc(OCCCCN3CC=C(c4c[nH]c5cc(Br)ccc45)CC3)ccc2s1 [Example 26, 5-{4-[4-(6-bromoindol-3-yl)1,2,5,6-tetrahydropyrid-1-yl]butoxy}-2-methylbenzothiazole] | < 0.1 | < 0.1
 |  | Cc1nc2cc(OCCCCCN3CC=C(c4c[nH]c5cc(Br)ccc45)CC3)ccc2s1 [Example 27, 5-{5-[4-(6-bromoindol-3-yl)-1,2,5,6-tetrahydropyrid-1-yl]pentoxy}-2-methylbenzothiazole] | < 0.1 | < 0.1
